In the NIST ThermoML archive (doi:10.1016/j.tca.2006.04.016):

Test: xn = mol fraction of the nth substance listed
Settings: 101 kPa, Liquid, Vibrating tube method

CN(C)CCCN [N,N-dimethyl-1,3-propanediamine] + O
mass density [kg/m3]
Settings	283.15 K	288.15 K	293.15 K	298.15 K	303.15 K	308.15 K	313.15 K	318.15 K
x2 = 0	825.96	821.56	817.14	812.72	808.28	803.83	799.38	794.9
x2 = 0.0403	829.01	824.62	820.21	815.8	811.37	806.92	802.47	797.99
x2 = 0.0811	832.1	827.73	823.33	818.92	814.5	810.07	805.61	801.14
x2 = 0.1198	835.2	830.84	826.46	822.07	817.65	813.22	808.78	804.31
x2 = 0.16	838.61	834.27	829.9	825.51	821.11	816.69	812.24	807.78
x2 = 0.1996	842.14	837.81	833.45	829.08	824.69	820.27	815.84	811.38
x2 = 0.2498	846.96	842.65	838.31	833.95	829.57	825.17	820.74	816.29
x2 = 0.2998	852.16	847.87	843.54	839.2	834.84	830.45	826.04	821.59
x2 = 0.3499	857.74	853.47	849.16	844.84	840.49	836.11	831.71	827.27
x2 = 0.3997	863.92	859.67	855.38	851.07	846.73	842.37	837.97	833.54
x2 = 0.4501	870.78	866.55	862.28	857.98	853.66	849.3	844.91	840.49
x2 = 0.4998	878.37	874.15	869.89	865.61	861.29	856.94	852.56	848.14
x2 = 0.5501	886.96	882.76	878.51	874.24	869.93	865.59	861.21	856.79
x2 = 0.5999	896.46	892.27	888.05	883.78	879.48	875.14	870.76	–
x2 = 0.6498	907.17	902.99	898.77	894.51	890.21	885.88	881.5	–
x2 = 0.7	919.35	915.19	910.98	906.73	902.43	898.1	893.72	–
x2 = 0.7499	932.79	928.64	924.44	920.2	915.92	911.6	907.23	–
x2 = 0.8	947.49	943.36	939.18	934.96	930.71	926.42	922.09	–
x2 = 0.84	959.97	955.86	951.72	947.55	943.35	939.13	934.86	–
x2 = 0.8799	972.18	968.2	964.2	960.18	956.14	952.08	947.99	–
x2 = 0.9	977.57	973.8	970	966.18	962.33	958.45	954.54	–
x2 = 0.92	981.9	978.55	975.13	971.67	968.16	964.59	960.96	–
x2 = 0.94	984.99	982.31	979.51	976.61	973.6	970.49	967.29	–
x2 = 0.9597	987.53	985.64	983.57	981.34	978.95	976.4	973.72	–
x2 = 0.975	990.28	988.99	987.47	985.74	983.82	981.71	979.42	–
x2 = 0.99	994.84	994.04	992.95	991.63	990.07	988.31	986.35	–
